Measurements published in publication PMC8162404, “Proteomimetic surface fragments distinguish targets by function” (Chemical Science, 2020).

Legend:
Gal-1 = target: T1, Gal-1 (Homo sapiens, UniProt P09382); experiment: Pull-down assay with immobilized protein and LSM libraries; format: binding; settings: H12 library; 1:1 binding assumed; read-out: Surface mapping KD (apparent)
T1 construct: made in house; host or cells: E. coli BL21(DE3)
In short: (§1)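 Buffers were HEPES pH 7.4 with 150 mM NaCl, plus 1 mM TCEP and 1 mM CaCl2 (50 mM HEPES) for S100A4 and S100B, 1 mM TCEP for Gal-1, and no additive for RecQ-WH. Immobilized protein at 64 µM was equilibrated 30 min with the LSM sublibrary, and unbound probes were measured by LC-MS.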

S100B = target: T2, S100B (Homo sapiens, UniProt P04271); experiment: as above; format: binding; settings: H12 library; 1:1 binding assumed; read-out: Surface mapping KD (apparent)
T2 construct: made in house; host or cells: Escherichia coli BL21(DE3)
T2 sequence (P04271 1-92): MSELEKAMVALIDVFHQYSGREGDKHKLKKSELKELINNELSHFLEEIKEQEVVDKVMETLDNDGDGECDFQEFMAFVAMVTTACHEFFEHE
In short: as §1

T1 sequence (P09382 whole entry): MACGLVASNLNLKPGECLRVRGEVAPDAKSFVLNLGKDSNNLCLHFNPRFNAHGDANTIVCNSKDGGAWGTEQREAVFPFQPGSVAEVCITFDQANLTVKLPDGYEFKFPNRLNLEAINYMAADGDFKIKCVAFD

Row | Kd (Gal-1) [µM] | Kd (S100B) [µM] | SMILES
1 | 423 | 264 | CC(C)C[C@@H](CC(=O)N[C@H]1CCC[C@@H]1C(=O)N[C@H]1CCC[C@@H]1C(=O)N[C@@H](CC(N)=O)CC(=O)N[C@H]1CCC[C@@H]1C(=O)N[C@H]1CCC[C@@H]1C(N)=O)NC(=O)[C@H]1CCC[C@@H]1NC(=O)[C@H]1CCC[C@@H]1N [H12 LN]
2 | 194 | 224 | CSCC[C@@H](CC(=O)N[C@H]1CCC[C@@H]1C(=O)N[C@H]1CCC[C@@H]1C(=O)N[C@@H](C)CC(=O)N[C@H]1CCC[C@@H]1C(=O)N[C@H]1CCC[C@@H]1C(N)=O)NC(=O)[C@H]1CCC[C@@H]1NC(=O)[C@H]1CCC[C@@H]1N [H12 MA]
3 | 436 | 348 | CC(C)C[C@@H](CC(=O)N[C@H]1CCC[C@@H]1C(=O)N[C@H]1CCC[C@@H]1C(N)=O)NC(=O)[C@H]1CCC[C@@H]1NC(=O)[C@H]1CCC[C@@H]1NC(=O)C[C@H](C)NC(=O)[C@H]1CCC[C@@H]1NC(=O)[C@H]1CCC[C@@H]1N [H12 AL]
4 | 446 | 348 | CC(C)C[C@@H](CC(=O)N[C@H]1CCC[C@@H]1C(=O)N[C@H]1CCC[C@@H]1C(=O)N[C@@H](CCC(N)=O)CC(=O)N[C@H]1CCC[C@@H]1C(=O)N[C@H]1CCC[C@@H]1C(N)=O)NC(=O)[C@H]1CCC[C@@H]1NC(=O)[C@H]1CCC[C@@H]1N [H12 LQ]
5 | 438 | 293 | CC(C)C[C@@H](CC(=O)N[C@H]1CCC[C@@H]1C(=O)N[C@H]1CCC[C@@H]1C(=O)N[C@@H](C)CC(=O)N[C@H]1CCC[C@@H]1C(=O)N[C@H]1CCC[C@@H]1C(N)=O)NC(=O)[C@H]1CCC[C@@H]1NC(=O)[C@H]1CCC[C@@H]1N [H12 LA]
6 | 221 | 193 | CC(C)[C@@H](CC(=O)N[C@H]1CCC[C@@H]1C(=O)N[C@H]1CCC[C@@H]1C(N)=O)NC(=O)[C@H]1CCC[C@@H]1NC(=O)[C@H]1CCC[C@@H]1NC(=O)C[C@H](CCCCN)NC(=O)[C@H]1CCC[C@@H]1NC(=O)[C@H]1CCC[C@@H]1N [H12 KV]
7 | 364 | 166 | CSCC[C@@H](CC(=O)N[C@H]1CCC[C@@H]1C(=O)N[C@H]1CCC[C@@H]1C(N)=O)NC(=O)[C@H]1CCC[C@@H]1NC(=O)[C@H]1CCC[C@@H]1NC(=O)C[C@H](CCSC)NC(=O)[C@H]1CCC[C@@H]1NC(=O)[C@H]1CCC[C@@H]1N [H12 MM]
8 | 436 | 348 | CC[C@H](C)[C@@H](CC(=O)N[C@H]1CCC[C@@H]1C(=O)N[C@H]1CCC[C@@H]1C(N)=O)NC(=O)[C@H]1CCC[C@@H]1NC(=O)[C@H]1CCC[C@@H]1NC(=O)C[C@H](C)NC(=O)[C@H]1CCC[C@@H]1NC(=O)[C@H]1CCC[C@@H]1N [H12 AI]
9 | 180 | 417 | CSCC[C@@H](CC(=O)N[C@H]1CCC[C@@H]1C(=O)N[C@H]1CCC[C@@H]1C(=O)N[C@@H](CCC(=O)O)CC(=O)N[C@H]1CCC[C@@H]1C(=O)N[C@H]1CCC[C@@H]1C(N)=O)NC(=O)[C@H]1CCC[C@@H]1NC(=O)[C@H]1CCC[C@@H]1N [H12 ME]
10 | 485 | 205 | C[C@@H](CC(=O)N[C@H]1CCC[C@@H]1C(=O)N[C@H]1CCC[C@@H]1C(N)=O)NC(=O)[C@H]1CCC[C@@H]1NC(=O)[C@H]1CCC[C@@H]1NC(=O)C[C@H](CCCNC(=N)N)NC(=O)[C@H]1CCC[C@@H]1NC(=O)[C@H]1CCC[C@@H]1N [H12 RA]
11 | 293 | 300 | NCCCC[C@@H](CC(=O)N[C@H]1CCC[C@@H]1C(=O)N[C@H]1CCC[C@@H]1C(=O)N[C@@H](CCC(N)=O)CC(=O)N[C@H]1CCC[C@@H]1C(=O)N[C@H]1CCC[C@@H]1C(N)=O)NC(=O)[C@H]1CCC[C@@H]1NC(=O)[C@H]1CCC[C@@H]1N [H12 KQ]
12 | 298 | 224 | NCCCC[C@@H](CC(=O)N[C@H]1CCC[C@@H]1C(=O)N[C@H]1CCC[C@@H]1C(=O)N[C@@H](CO)CC(=O)N[C@H]1CCC[C@@H]1C(=O)N[C@H]1CCC[C@@H]1C(N)=O)NC(=O)[C@H]1CCC[C@@H]1NC(=O)[C@H]1CCC[C@@H]1N [H12 KS]

More lines, now with the values behind:

Row | SMILES | Kd (Gal-1) [µM] | Kd (S100B) [µM]
13 | NC(=O)[C@H]1CCC[C@@H]1NC(=O)[C@H]1CCC[C@@H]1NC(=O)C[C@H](CC(=O)O)NC(=O)[C@H]1CCC[C@@H]1NC(=O)[C@H]1CCC[C@@H]1NC(=O)C[C@H](Cc1c[nH]c2ccccc12)NC(=O)[C@H]1CCC[C@@H]1NC(=O)[C@H]1CCC[C@@H]1N [H12 WD] | 297 | 199
14 | C[C@@H](O)[C@@H](CC(=O)N[C@H]1CCC[C@@H]1C(=O)N[C@H]1CCC[C@@H]1C(N)=O)NC(=O)[C@H]1CCC[C@@H]1NC(=O)[C@H]1CCC[C@@H]1NC(=O)C[C@H](Cc1ccccc1)NC(=O)[C@H]1CCC[C@@H]1NC(=O)[C@H]1CCC[C@@H]1N [H12 FT] | 254 | 86
15 | C[C@@H](CC(=O)N[C@H]1CCC[C@@H]1C(=O)N[C@H]1CCC[C@@H]1C(=O)N[C@H](CC(=O)N[C@H]1CCC[C@@H]1C(=O)N[C@H]1CCC[C@@H]1C(N)=O)Cc1ccc(O)cc1)NC(=O)[C@H]1CCC[C@@H]1NC(=O)[C@H]1CCC[C@@H]1N [H12 AY] | 422 | 318
16 | CSCC[C@@H](CC(=O)N[C@H]1CCC[C@@H]1C(=O)N[C@H]1CCC[C@@H]1C(=O)N[C@@H](CCCCN)CC(=O)N[C@H]1CCC[C@@H]1C(=O)N[C@H]1CCC[C@@H]1C(N)=O)NC(=O)[C@H]1CCC[C@@H]1NC(=O)[C@H]1CCC[C@@H]1N [H12 MK] | 172 | 78
17 | NC(=O)CC[C@@H](CC(=O)N[C@H]1CCC[C@@H]1C(=O)N[C@H]1CCC[C@@H]1C(N)=O)NC(=O)[C@H]1CCC[C@@H]1NC(=O)[C@H]1CCC[C@@H]1NC(=O)C[C@H](Cc1ccc(O)cc1)NC(=O)[C@H]1CCC[C@@H]1NC(=O)[C@H]1CCC[C@@H]1N [H12 YQ] | 176 | 222
18 | C[C@@H](CC(=O)N[C@H]1CCC[C@@H]1C(=O)N[C@H]1CCC[C@@H]1C(N)=O)NC(=O)[C@H]1CCC[C@@H]1NC(=O)[C@H]1CCC[C@@H]1NC(=O)C[C@H](Cc1ccc(O)cc1)NC(=O)[C@H]1CCC[C@@H]1NC(=O)[C@H]1CCC[C@@H]1N [H12 YA] | 222 | 95
19 | NC(=O)[C@H]1CCC[C@@H]1NC(=O)[C@H]1CCC[C@@H]1NC(=O)C[C@H](CO)NC(=O)[C@H]1CCC[C@@H]1NC(=O)[C@H]1CCC[C@@H]1NC(=O)C[C@H](Cc1ccccc1)NC(=O)[C@H]1CCC[C@@H]1NC(=O)[C@H]1CCC[C@@H]1N [H12 FS] | 268 | 310
20 | NC(=O)[C@H]1CCC[C@@H]1NC(=O)[C@H]1CCC[C@@H]1NC(=O)C[C@H](CC(=O)O)NC(=O)[C@H]1CCC[C@@H]1NC(=O)[C@H]1CCC[C@@H]1NC(=O)C[C@H](Cc1ccc(O)cc1)NC(=O)[C@H]1CCC[C@@H]1NC(=O)[C@H]1CCC[C@@H]1N [H12 YD] | 205 | 430
21 | CC(C)[C@@H](CC(=O)N[C@H]1CCC[C@@H]1C(=O)N[C@H]1CCC[C@@H]1C(N)=O)NC(=O)[C@H]1CCC[C@@H]1NC(=O)[C@H]1CCC[C@@H]1NC(=O)C[C@H](Cc1ccc(O)cc1)NC(=O)[C@H]1CCC[C@@H]1NC(=O)[C@H]1CCC[C@@H]1N [H12 YV] | 364 | 166
22 | NC(=O)[C@H]1CCC[C@@H]1NC(=O)[C@H]1CCC[C@@H]1NC(=O)C[C@H](CC(=O)O)NC(=O)[C@H]1CCC[C@@H]1NC(=O)[C@H]1CCC[C@@H]1NC(=O)C[C@H](Cc1ccccc1)NC(=O)[C@H]1CCC[C@@H]1NC(=O)[C@H]1CCC[C@@H]1N [H12 FD] | 251 | 371
23 | NC(=O)[C@H]1CCC[C@@H]1NC(=O)[C@H]1CCC[C@@H]1NC(=O)C[C@H](CCC(=O)O)NC(=O)[C@H]1CCC[C@@H]1NC(=O)[C@H]1CCC[C@@H]1NC(=O)C[C@H](Cc1ccc(O)cc1)NC(=O)[C@H]1CCC[C@@H]1NC(=O)[C@H]1CCC[C@@H]1N [H12 YE] | 198 | 459
24 | NC(=O)CC[C@@H](CC(=O)N[C@H]1CCC[C@@H]1C(=O)N[C@H]1CCC[C@@H]1C(N)=O)NC(=O)[C@H]1CCC[C@@H]1NC(=O)[C@H]1CCC[C@@H]1NC(=O)C[C@H](Cc1ccccc1)NC(=O)[C@H]1CCC[C@@H]1NC(=O)[C@H]1CCC[C@@H]1N [H12 FQ] | 208 | 104
25 | C[C@@H](CC(=O)N[C@H]1CCC[C@@H]1C(=O)N[C@H]1CCC[C@@H]1C(=O)N[C@H](CC(=O)N[C@H]1CCC[C@@H]1C(=O)N[C@H]1CCC[C@@H]1C(N)=O)Cc1ccccc1)NC(=O)[C@H]1CCC[C@@H]1NC(=O)[C@H]1CCC[C@@H]1N [H12 AF] | 428 | 114
26 | CSCC[C@@H](CC(=O)N[C@H]1CCC[C@@H]1C(=O)N[C@H]1CCC[C@@H]1C(N)=O)NC(=O)[C@H]1CCC[C@@H]1NC(=O)[C@H]1CCC[C@@H]1NC(=O)C[C@H](CCCCN)NC(=O)[C@H]1CCC[C@@H]1NC(=O)[C@H]1CCC[C@@H]1N [H12 KM] | 282 | 153
